Experimental data taken from patent US20160297830A1, “NOVEL COMPOUNDS USEFUL FOR THE TREATMENT OF BACTERIAL INFECTIOUS DISEASES” (GALAPAGOS NV, priority 2013, published 2016).
Values after ≈ are worked out from the molar mass of the structure shown.

Tested on: H. influenza Hi4 efflux pump KO
Assay: Antibacterial activity assay (MIC), H. influenza Hi4
Format: cell-based

| SMILES | MIC |
| --- | --- |
| COC[C@H]1[C@@H](O)[C@@H]2O[C@@]34/C(C)=C/[C@@H](C)[C@@H]([C@H](O)COC)OC(=O)[C@H](COC)[C@H]3C=C[C@@H]2[C@H]4[C@@H]1O [Branimycin, reference compound] | 4 µg/mL (≈ 8.29 µM) |
| COCC(=NO)[C@H]1OC(=O)[C@H](COC)[C@H]2C=C[C@H]3[C@H]4O[C@]2(/C(C)=C/[C@H]1C)[C@@H]3[C@H](O)[C@@H](COC)[C@H]4OC(=O)c1ccc[nH]1 [Compound 25, 18-Deoxy-18-oximino-8-O-1H-pyrrole-2′-carbonylbranimycin] | 1 µg/mL (≈ 1.7 µM) |
| COC[C@@H]1[C@@H](O)[C@@H]2[C@H]3C=C[C@@H]4[C@@H](COC)C(=O)O[C@H]([C@H](O)COC)[C@H](C)/C=C(\C)[C@@]24O[C@H]3[C@@H]1OC(=O)c1ccc[nH]1 [Compound 2, 8-O-1H-pyrrole-2′-carbonylbranimycin] | 4 µg/mL (≈ 6.95 µM) |
| COC[C@@H]1[C@@H](O)[C@@H]2[C@H]3C=C[C@@H]4[C@@H](COC)C(=O)O[C@H]([C@H](O)COC)[C@H](C)/C=C(\C)[C@@]24O[C@H]3[C@@H]1OC(=O)c1cc(Cl)c[nH]1 [Compound 28, 8-O-4-Chloro-1H-pyrrole-2′-carbonylbranimycin] | 4 µg/mL (≈ 6.56 µM) |
| COC[C@@H]1[C@@H](O)[C@@H]2[C@H]3C=C[C@@H]4[C@@H](COC)C(=O)O[C@H]([C@H](O)COC)[C@H](C)/C=C(\C)[C@@]24O[C@H]3[C@@H]1OC(=O)c1cc(F)c(F)[nH]1 [Compound 38, 8-O-4,5-Difluoro-1H-pyrrole-2′-carbonylbranimycin] | 16 µg/mL (≈ 26.2 µM) |
| COC/C(=N\OC)[C@H]1OC(=O)[C@H](COC)[C@H]2C=C[C@H]3[C@H]4O[C@]2(/C(C)=C/[C@H]1C)[C@@H]3[C@H](O)[C@@H](COC)[C@H]4OC(=O)c1ccc[nH]1 [Compound 27, 18-Deoxy-18-methoximino-8-O-1H-pyrrole-2′-carbonylbranimycin] | 8 µg/mL (≈ 13.3 µM) |
| COCC(=NOC(C)=O)[C@H]1OC(=O)[C@H](COC)[C@H]2C=C[C@H]3[C@H]4O[C@]2(/C(C)=C/[C@H]1C)[C@@H]3[C@H](O)[C@@H](COC)[C@H]4OC(=O)c1cc(Cl)c[nH]1 [Compound 42, 18-Acetylimino-18-deoxy-8-O-4-Chloro-1H-pyrrole-2′-carbonylbranimycin] | 4 µg/mL (≈ 6.01 µM) |
| COC[C@@H]1[C@@H](O)[C@@H]2[C@H]3C=C[C@@H]4[C@@H](COC)C(=O)OC[C@H](C)/C=C(\C)[C@@]24O[C@H]3[C@@H]1OC(=O)c1ccc[nH]1 [Compound 22, 17,18-Dinor-8-O-1H-pyrrole-2′-carbonybranimycin] | 32 µg/mL (≈ 63.8 µM) |
| COC[C@@H]1[C@@H](O)[C@@H]2[C@H]3C=C[C@@H]4[C@@H](COC)C(=O)O[C@H]([C@H](O)COC)[C@H](C)/C=C(\C)[C@@]24O[C@H]3[C@@H]1OC(=O)c1cc(Br)c(Br)o1 [Compound 36, 8-O-4,5-Dibromofurane-2′-carbonylbranimycin] | 32 µg/mL (≈ 43.6 µM) |
